Experimental data published in patent US8552018B2, “Substituted tricyclic compounds as protein kinase inhibitors” (Arizona Board of Regents on behalf of the University of …, priority 2003, dated 2013).

Columns and labels:
Type in all cases: cell-based
[1] = system: GIST882 cell line; test: Cancer cell cytotoxicity assay (sulforhodamine B); details: for IC50: Homo sapiens, 96 h, GIST882, 4 days, read-out: IC50 c-kit GIST882
Experimental: To validate the hypothesis that the designed c-kit/PDGFR tyrosine kinase inhibitors mediate GIST882 cell killing and PDGFR-mediated cell killing of pancreatic cancer cell lines (CFPAC-1, PANC-1 and MIA PaCa-2), an in vitro cytotoxicity assay was performed. The GIST882 cell line used in this study has a c-kit gain-of-function mutation (K642E). […] First the cells were cultured. GIST882 cells were provided by Dr. Jonathan A. Fletcher (Dana-Farber Cancer Institute, Boston, Mass.). PANC-1 and MIAPaCa-2 cells were provided by Dr. Daniel Von Hoff (Arizona Cancer Center, Tucson, Ariz.). […] All the cell lines were incubated in a humidified incubator at 37° C. with 5% CO2 atmosphere.
(§1) After incubation for 4 days at 37° C. in a humidified incubator, the cells were fixed with 10% Trichloroacetic acid solution (Catalog No. 490-10, Sigma). Subsequently, they were labeled with 0.04% Sulforhodamine B (S9012, Sigma) in 1% acetic acid. After multiple washes to remove excess dye, 100 μl of 50 mM Tris solution was added to each well in order to dissolve the dye. The absorbance of each well was read on a plate reader (Wallac Vector^2, PerkinElmer) at the wavelength of 570 nm. Data were expressed as the percentage of survival of control calculated from the absorbance corrected for background absorbance. The surviving percent of cells was determined by dividing the mean absorbance values of the […] by the mean absorbance values of the control and multiplying by 100.

[2] = system: MIAPaCa-2 cells; test: Cancer cell cytotoxicity assay (sulforhodamine B); details: Homo sapiens, MIA PaCa-2, 96 h; MIAPaCa-2, 4 days; read-out: IC50 PDGFR MIAPaCa
Experimental: (§2) To validate the hypothesis that the designed c-kit/PDGFR tyrosine kinase inhibitors mediate GIST882 cell killing and PDGFR-mediated cell killing of pancreatic cancer cell lines (CFPAC-1, PANC-1 and MIA PaCa-2), an in vitro cytotoxicity assay was performed. The GIST882 cell line used in this study has a c-kit gain-of-function mutation (K642E). The assay utilized the Cell Titer 965 Non-Radioactive Cell Proliferation Assay (Promega Corp., Madison, Wis.). First the cells were cultured. GIST882 cells were provided by Dr. Jonathan A. Fletcher (Dana-Farber Cancer Institute, Boston, Mass.). PANC-1 and MIAPaCa-2 cells were provided by Dr. Daniel Von Hoff (Arizona Cancer Center, Tucson, Ariz.). GIST882 cells were cultured in RPMI 1640 medium (Cat #21870-076, Invitrogen Corporation) supplemented with 300 mg/L L-glutamine, 100 unit/ml penicillin, 100 μg/ml streptomycin and 15% fetal bovine serum. PANC-1 and MIAPaCa-2 cells were maintained in RPMI 1640 medium (cat #10-040, Mediatech, Inc.) supplemented with 100 unit/ml penicillin, 100 μg/ml streptomycin and 10% fetal bovine serum. All the cell lines were incubated in a humidified incubator at 37° C. with 5% CO2 atmosphere.
as §1, with “Cells were plated at a density of 2000 to 10000 cells per well, depending on their growth rate, in 0.1 mL medium on day 0 in 96-well Falcon microtiter plates (#3072, Becton-Dickinson Labware, Lincoln Park, N.J.). On day 1, 10 μL of serial dilutions of the individual compounds were added to the plates in replicates of 4. After incubation” for “After incubation”

[3] = system: PANC-1 cells; test: Cancer cell cytotoxicity assay (sulforhodamine B); details: Homo sapiens, 96 h; PANC-1, 4 days; read-out: IC50 PDGFR PANC-1
Experimental: as §2
as §1, with “Cells were plated at a density of 2000 to 10000 cells per well, depending on their growth rate, in 0.1 mL medium on day 0 in 96-well Falcon microtiter plates (#3072, Becton-Dickinson Labware, Lincoln Park, N.J.). On day 1, 10 μL of serial dilutions of the individual compounds were added to the plates in replicates of 4. After incubation” for “After incubation”

[4] = system: GIST882 cell line; test: GIST882 cell growth assay (Cell-Titer-Glo); details: for IC50: Homo sapiens, GIST882, 96 hours
Experimental: (§3) Briefly, cells are seeded into 96-well, tissue-culture treated, opaque white plates (Thermo Electron, Vantaa, Finland), at between 5000 and 7500 cells per well, depending on the speed of cell proliferation, in 100 μl of appropriate growth medium (determined by the ATCC). Cells are then exposed to the appropriate concentration of drug or an equal amount of DMSO (drug diluent) and allowed to grow in its presence for 96 hours. Following this, 100 μl of Cell-Titer-Glo reagent (Promega, Inc., Madison, Wis.) is added to each well. Plates are then shaken for 2 minutes at room temperature to allow for cell lysis and incubated for 10 minutes to stabilize the luminescent signal. Similar to the Kinase-Glo assay reagent, this reagent contains both luciferase enzyme and its substrate luciferin. Luciferase, activated by ATP in the cell lysate, catalyzes the conversion of luciferin to oxyluciferin, a reaction which produces light. The amount of light produced is proportionate to the amount of ATP in the cell lysate, which is itself proportional to cell number and gives an index of cellular proliferation.
as §3, with “Various compounds of the invention, including (IV-1-3) (also referred to as HPK16), (III-1-3) (also referred to as HPK56), (III-1-4) (also referred to as HPK57), (III-1-5) (also referred to as HPK59), and (II-2-7) (also referred to as HPK61) were tested for activity against GIST tumor cells using the GIST882 cell line. Briefly,” for “Briefly,”

| Structure (SMILES) | cells alive at day 4 ([1]; GIST882, day 4) | IC50 [1] | IC50 [2] | IC50 [3] | inhibitory activity in GIST882 cell line (in words) ([4]; FIG. 29, 96 hours) | IC50 [4] |
| --- | --- | --- | --- | --- | --- | --- |
| S=C(NCc1ccc2c(c1)OCO2)N1CCN(c2ncnc3c2oc2ccccc23)CC1 [HPK56, 4-Benzo[4,5]furo[3,2-d]pyrimidin-4-yl-piperazine-1-carbothioic acid (benzo[1,3]dioxol-5-ylmethyl)-amide] | 5% | 1.6 µM | 2.1 µM | 3 µM | highest inhibitory activity | 1.6 µM |
| COc1cc2[nH]c3ncnc(N4CCN(C(=S)Nc5ccc(S(=O)(=O)Nc6ncccn6)cc5)CC4)c3c2cc1OC [HPK62, 4-(6,7-Dimethoxy-9H-1,3,9-triaza-fluoren-4-yl)-piperazine-1-carbothioic acid [4-(pyrimidin-2-ylsulfamoyl)-phenyl]-amide] |  | 28 µM | > 50 µM | > 50 µM |  | 28 µM |
| COc1cc2ncnc(N3CCN(C(=S)Nc4ccc(S(=O)(=O)Nc5ncccn5)cc4)CC3)c2cc1OC [HPK16, 4-(6,7-Dimethoxy-quinazolin-4-yl)-piperazine-1-carbothioic acid [4-(pyrimidin-2-ylsulfamoly)-phenyl]-amide] |  | 50 µM | > 50 µM | > 50 µM |  | 50 µM |
